This note sets out measurements from US10130693B2, “Peptides, combination of peptides and scaffolds for use in immunotherapeutic treatment of various cancers” (Immatics Biotechnologies GmbH, priority 2015, dated 2018).

In the experiment the test system is HLA-A*24. The experiment is described as follows: MHC binding assay, UV-ligand exchange with beta2m ELISA (exchange yield), HLA-A*24. More on the design: species or system human. The note with it: binding to HLA-A*24, UV-ligand exchange. The text has this:
Candidate peptides for T cell based therapies according to the present invention were further tested for their MHC binding capacity (affinity). The individual peptide-MHC complexes were produced by UV-ligand exchange, where a UV-sensitive peptide is cleaved upon UV-irradiation, and exchanged with the peptide of interest as analyzed. Only peptide candidates that can effectively bind and stabilize the peptide-receptive MHC molecules prevent dissociation of the MHC complexes. To determine the yield of the exchange reaction, an ELISA was performed based on the detection of the light chain (β2m) of stabilized MHC complexes. The assay was performed as generally described in Rodenko et al. (Rodenko et al., 2006).
96 well MAXISorp plates (NUNC) were coated over night with 2 ug/ml streptavidin in PBS at room temperature, washed 4× and blocked for 1 h at 37° C. in 2% BSA containing blocking buffer. […] Peptide-MHC monomers of the UV-exchange reaction were diluted 100 fold in blocking buffer. Samples were incubated for 1 h at 37° C., washed four times, incubated with 2 ug/ml HRP conjugated anti-β2m for 1h at 37° C., washed again and detected with TMB solution that is stopped with […]. Absorption was measured at 450 nm. Candidate peptides that show a high exchange yield (preferably higher than 50%, most preferred higher than 75%) are generally preferred for a generation and production of antibodies or fragments thereof, and/or T cell receptors or fragments thereof, as they show sufficient avidity to the MHC molecules and prevent dissociation of the MHC complexes.
Take “379 (VFIAQGYTL; listed as Homo sapiens) [compound 379]”: the “Peptide exchange (MHC class I binding score, peptide exchange yield)” value (“Peptide exchange” for short) was “++++ (>=75% = ++++)”.
The same measure for “197 (IFTDIFHYL; listed as Homo sapiens) [compound 197]”: “++++ (>=75% = ++++)”.
Regarding “376 (VYTPVASRQSL; listed as Homo sapiens) [compound 376]”, the “Peptide exchange” value was “+++ (50%-75% = +++)”.
The same measure for “318 (TYSNSAFQYF; listed as Homo sapiens) [compound 318]”: “+++ (50%-75% = +++)”; for “303 (LYSVIKEDF; listed as Homo sapiens) [compound 303]”: “+++ (50%-75% = +++)”.
Turning to “271 (RFLMKSYSF; listed as Homo sapiens) [compound 271]”, the “Peptide exchange” value is given as “++++ (>=75% = ++++)”.
With “236 (VYLPKIPSW; listed as Homo sapiens) [compound 236]”, the “Peptide exchange” value was “+++ (50%-75% = +++)”.
As for “97 (TYTFLKETF; listed as Homo sapiens) [compound 97]”, the “Peptide exchange” value is “++++ (>=75% = ++++)”.
As to “237 (KYVGQLAVL; listed as Homo sapiens) [compound 237]”, the “Peptide exchange” value is “+++ (50%-75% = +++)”.
The same measure for “221 (KYIGNLDLL; listed as Homo sapiens) [compound 221]”: “++++ (>=75% = ++++)”; for “205 (VYPVVLNQI; listed as Homo sapiens) [compound 205]”: “+++ (50%-75% = +++)”; for “341 (SYLTQHQRI; listed as Homo sapiens) [compound 341]”: “+++ (50%-75% = +++)”.
Take “215 (SYVASFFLL; listed as Homo sapiens) [compound 215]”: the “Peptide exchange” value is “++ (20%-49% = ++)”.
The same measure for “283 (EYQEIFQQL; listed as Homo sapiens) [compound 283]”: “+++ (50%-75% = +++)”; for “128 (VYPFDWQYI; listed as Homo sapiens) [compound 128]”: “++++ (>=75% = ++++)”; for “257 (IFIDNSTQPLHF; listed as Homo sapiens) [compound 257]”: “+++ (50%-75% = +++)”.
The entry for “129 (KYIDYLMTW; listed as Homo sapiens) [compound 129]” is “++++ (>=75% = ++++)”.
Regarding “314 (RYFKGDYSI; listed as Homo sapiens) [compound 314]”, the “Peptide exchange” value is on record as “+++ (50%-75% = +++)”.
As to “369 (VYTHEVVTL; listed as Homo sapiens) [compound 369]”, the “Peptide exchange” value is reported as “+++ (50%-75% = +++)”.
For “362 (VYNYAEQTL; listed as Homo sapiens) [compound 362]”, the “Peptide exchange” value is “++ (20%-49% = ++)”.
In the case of “364 (KYLNENQLSQL; listed as Homo sapiens) [compound 364]”, the “Peptide exchange” value was “+++ (50%-75% = +++)”.
Consider “239 (VYAIFRILL; listed as Homo sapiens) [compound 239]”, for which the “Peptide exchange” value is “+++ (50%-75% = +++)”.
The same measure for “387 (KYTEKLEEI; listed as Homo sapiens) [compound 387]”: “+++ (50%-75% = +++)”; for “375 (KYTDYILKI; listed as Homo sapiens) [compound 375]”: “+++ (50%-75% = +++)”; for “282 (NYLVDPVTI; listed as Homo sapiens) [compound 282]”: “+++ (50%-75% = +++)”.
Take “147 (LYLAFPLAF; listed as Homo sapiens) [compound 147]”: the “Peptide exchange” value is listed as “+++ (50%-75% = +++)”.
On to “234 (SYLPAIWLL; listed as Homo sapiens) [compound 234]”, for which the “Peptide exchange” value is recorded as “+++ (50%-75% = +++)”.
Regarding “125 (VFSRDFGLLVF; listed as Homo sapiens) [compound 125]”, the “Peptide exchange” value is “+++ (50%-75% = +++)”.
The same measure for “117 (IYLSDLTYI; listed as Homo sapiens) [compound 117]”: “+++ (50%-75% = +++)”; for “183 (PYLQDVPRI; listed as Homo sapiens) [compound 183]”: “+++ (50%-75% = +++)”.
“311 (EYLQNLNHI; listed as Homo sapiens) [compound 311]”: the “Peptide exchange” value was “++++ (>=75% = ++++)”.
In the case of “378 (VYIAELEKI; listed as Homo sapiens) [compound 378]”, the “Peptide exchange” value is given as “+++ (50%-75% = +++)”.
As to “261 (GYIKLINFI; listed as Homo sapiens) [compound 261]”, the “Peptide exchange” value is reported as “++++ (>=75% = ++++)”.
With “185 (QYLVHVNDL; listed as Homo sapiens) [compound 185]”, the “Peptide exchange” value is “++++ (>=75% = ++++)”.
Consider “347 (VYAEVNSL; listed as Homo sapiens) [compound 347]”, for which the “Peptide exchange” value is “+++ (50%-75% = +++)”.
For the substance “312 (SYTSVLSRL; listed as Homo sapiens) [compound 312]”, the “Peptide exchange” value is reported as “+++ (50%-75% = +++)”.
The entry for “133 (KYLEDMKTYF; listed as Homo sapiens) [compound 133]” is “+++ (50%-75% = +++)”; for “127 (QYFTGNPLF; listed as Homo sapiens) [compound 127]” it is “+++ (50%-75% = +++)”; for “292 (FYPQIINTF; listed as Homo sapiens) [compound 292]” it is “++++ (>=75% = ++++)”.
Consider “211 (VFKSEGAYF; listed as Homo sapiens) [compound 211]”, for which the “Peptide exchange” value is “++++ (>=75% = ++++)”.
Regarding “121 (RYGLPAAWSTF; listed as Homo sapiens) [compound 121]”, the “Peptide exchange” value is listed as “+++ (50%-75% = +++)”.
With “138 (VYNAVSTSF; listed as Homo sapiens) [compound 138]”, the “Peptide exchange” value was “++ (20%-49% = ++)”.
The entry for “381 (KYPASSSVF; listed as Homo sapiens) [compound 381]” is “+++ (50%-75% = +++)”; for “383 (RYKPGEPITF; listed as Homo sapiens) [compound 383]” it is “+++ (50%-75% = +++)”.
With “149 (SYGTVSQI; listed as Homo sapiens) [compound 149]”, the “Peptide exchange” value is recorded as “++++ (>=75% = ++++)”.
Regarding “224 (PYFFANQEF; listed as Homo sapiens) [compound 224]”, the “Peptide exchange” value was “+++ (50%-75% = +++)”.
With “286 (SYGTILSHI; listed as Homo sapiens) [compound 286]”, the “Peptide exchange” value is on record as “++++ (>=75% = ++++)”.
The entry for “361 (TYADIGGLDNQI; listed as Homo sapiens) [compound 361]” is “+++ (50%-75% = +++)”; for “386 (TFSDVEAHF; listed as Homo sapiens) [compound 386]” it is “+++ (50%-75% = +++)”; for “270 (YYSQESKVLYL; listed as Homo sapiens) [compound 270]” it is “+++ (50%-75% = +++)”.
The same measure for “176 (FYINGQYQF; listed as Homo sapiens) [compound 176]”: “+++ (50%-75% = +++)”; for “307 (GYAFTLPLF; listed as Homo sapiens) [compound 307]”: “+++ (50%-75% = +++)”; for “202 (RYVEGIVSL; listed as Homo sapiens) [compound 202]”: “+++ (50%-75% = +++)”.
Turning to “214 (KYLMELTLI; listed as Homo sapiens) [compound 214]”, the “Peptide exchange” value is on record as “+++ (50%-75% = +++)”.
As to “191 (TYPDGTYTGRIF; listed as Homo sapiens) [compound 191]”, the “Peptide exchange” value was “+++ (50%-75% = +++)”.
Turning to “319 (KYSDVKNLI; listed as Homo sapiens) [compound 319]”, the “Peptide exchange” value is given as “++++ (>=75% = ++++)”.
For “204 (EYLSTCSKL; listed as Homo sapiens) [compound 204]”, the “Peptide exchange” value is on record as “+++ (50%-75% = +++)”.
